Laboratory results taken from patent publication US8501794B2, “Compounds as cannabinoid receptor ligands” (priority 2007, dated 2013).
Read-outs that look alike come from different tables or passages of the source.

Key:
[1] = biological target: T1, rat CB2 (Rattus norvegicus, UniProt Q9QZN9); assay: rat CB2 radioligand binding assay ([3H]CP-55,940 competition); parameters: expressed in transfected cells; host or cells: HEK293
T1 sequence (Q9QZN9 1-360): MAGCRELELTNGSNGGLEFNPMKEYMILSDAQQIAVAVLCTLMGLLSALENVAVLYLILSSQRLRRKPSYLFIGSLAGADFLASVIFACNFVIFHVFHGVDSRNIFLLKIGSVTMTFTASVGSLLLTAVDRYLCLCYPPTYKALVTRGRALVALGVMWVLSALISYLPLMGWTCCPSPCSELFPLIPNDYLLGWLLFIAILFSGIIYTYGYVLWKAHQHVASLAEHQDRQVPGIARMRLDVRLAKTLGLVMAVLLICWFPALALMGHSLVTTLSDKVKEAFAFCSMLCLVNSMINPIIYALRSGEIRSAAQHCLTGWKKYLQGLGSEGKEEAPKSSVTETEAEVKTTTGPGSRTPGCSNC

[2] = biological target: T2, human CB2 receptors (Homo sapiens, UniProt P34972); assay: human CB2 radioligand binding assay ([3H]CP-55,940 competition)
T2 construct: expressed in transfected cells; host or cells: HEK293
T2 sequence (P34972 whole entry): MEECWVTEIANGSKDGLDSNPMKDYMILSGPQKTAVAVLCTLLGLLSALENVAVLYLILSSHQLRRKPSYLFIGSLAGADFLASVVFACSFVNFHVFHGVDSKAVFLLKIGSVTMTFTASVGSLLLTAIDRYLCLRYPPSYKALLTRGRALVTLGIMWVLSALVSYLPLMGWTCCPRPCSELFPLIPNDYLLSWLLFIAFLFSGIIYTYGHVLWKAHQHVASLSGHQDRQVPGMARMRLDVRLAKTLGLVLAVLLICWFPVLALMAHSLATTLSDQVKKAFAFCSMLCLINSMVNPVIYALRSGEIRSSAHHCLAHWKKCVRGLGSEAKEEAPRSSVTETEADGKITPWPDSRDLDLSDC

[3] = HEK293 membranes, 0.5 nM [3H]CP-55,940, read-out: rat CB2 (Ki)
[4] = HEK293 membranes, 0.5 nM [3H]CP-55,940, read-out: human CB2 (Ki)

Row | Compound | Ki [1, 3] | Ki [2, 4] | Ki [1] | Ki [2]
1 | CCCCc1cn(C(C)(C)C)s/c1=N\C(=O)[C@@]1(C)CC[C@@H](C(=O)NCCC)C1(C)C [Example 219, (1S,3R)—N^1-[(5Z)-4-butyl-2-tert-butylisothiazol-5(2H)-ylidene]-1,2,2-trimethyl-N^3-propylcyclopentane-1,3-dicarboxamide] | 159 nM | 204 nM |  | 
2 | CCCCc1cn(C(C)(C)C)s/c1=N\C(=O)OCC(C)(C)C [Example 187, Neopentyl (5Z)-4-butyl-2-tert-butylisothiazol-5(2H)-ylidenecarbamate] |  |  | 8.2 nM | 38 nM
3 | CCCCc1cn(C(C)(C)C)s/c1=N\C(=O)N[C@H](C(=O)NC)C(C)(C)C [Example 190, N^2-({[(5Z)-4-butyl-2-tert-butylisothiazol-5(2H)-ylidene]amino}carbonyl)-N^1,3-dimethyl-L-valinamide] |  |  | 2.4 nM | 2.4 nM
4 | CCCCc1cn(C(C)(C)C)s/c1=N\C(=O)[C@]1(C)CC[C@H](NC(=O)OCC)C1(C)C [Example 216, Ethyl (1S,3R)-3-({[(5Z)-4-butyl-2-tert-butylisothiazol-5(2H)-ylidene]amino}carbonyl)-2,2,3-trimethylcyclopentylcarbamate] | 299 nM | 160 nM |  | 
5 | CCCCc1cn(C(C)(C)C)s/c1=N\C(=O)c1cc(C(C)C)ccc1OC [Example 82, N-[(5Z)-4-butyl-2-tert-butylisothiazol-5(2H)-ylidene]-5-isopropyl-2-methoxybenzamide] |  | 160 nM | 15 nM | 
6 | COc1ccc(Cl)cc1C(=O)/N=c1\sn(C(C)(C)C)cc1CCN1CCOCC1 [Example 12, N-[(5Z)-2-tert-butyl-4-(2-morpholin-4-ylethyl)isothiazol-5(2H)-ylidene]-5-chloro-2-methoxybenzamide] |  | 230 nM | 12 nM | 
7 | CCCCc1cn(C(C)(C)C)s/c1=N\C(=O)[C@]1(C)CC[C@H](C(=O)N2CC(F)(F)C2)C1(C)C [Example 185, (1R,3S)—N-[(5Z)-4-butyl-2-tert-butylisothiazol-5(2H)-ylidene]-3-[(3,3-difluoroazetidin-1-yl)carbonyl]-1,2,2-trimethylcyclopentanecarboxamide] |  | 113 nM | 49 nM | 
8 | CC(C)Cc1cn(C(C)(C)C)s/c1=N\C(=O)c1cc(C(F)(F)F)ccc1OC[C@@H]1CCCN1C [Example 197, N-[(5Z)-2-tert-butyl-4-isobutylisothiazol-5(2H)-ylidene]-2-{[(2S)-1-methylpyrrolidin-2-yl]methoxy}-5-(trifluoromethyl)benzamide] | 156 nM | 260 nM |  | 
9 | CCCCc1cn(C(C)(C)C)s/c1=N\C(=O)[C@@H]1CC[C@](C)(NC(N)=O)C1(C)C [Example 246, (1R,3S)-3-[(aminocarbonyl)amino]-N-[(5Z)-4-butyl-2-tert-butylisothiazol-5(2H)-ylidene]-2,2,3-trimethylcyclopentanecarboxamide] |  | 150 nM | 38 nM | 
10 | CCCCc1cn(C(C)(C)C)s/c1=N\C(=O)c1cc(C#N)ccc1OCC(F)(F)F [Example 130, N-[(5Z)-4-butyl-2-tert-butylisothiazol-5(2H)-ylidene]-5-cyano-2-(2,2,2-trifluoroethoxy)benzamide] |  |  | 2.8 nM | 81 nM
11 | CCCCc1cn(C(C)(C)C)s/c1=N\C(=O)[C@]1(C)CC[C@H](C(=O)NC2CC2)C1(C)C [Example 208, (1R,3S)—N^1-[(5Z)-4-butyl-2-tert-butylisothiazol-5(2H)-ylidene]-N^3-cyclopropyl-1,2,2-trimethylcyclopentane-1,3-dicarboxamide] |  | 200 nM | 11 nM | 
12 | CCCCc1cn(C(C)(C)C)s/c1=N\C(=O)[C@H]1CC[C@@](C)(C2=NCCO2)C1(C)C [Example 232, (1S,3R)—N-[(5Z)-4-butyl-2-tert-butylisothiazol-5(2H)-ylidene]-3-(4,5-dihydro-1,3-oxazol-2-yl)-2,2,3-trimethylcyclopentanecarboxamide] |  |  | 18 nM | 45 nM
13 | CCCCc1c(C)n(C)s/c1=N\C(=O)C12CC3CC(CC1C3)C2 [Example 4, N-[(5Z)-4-butyl-2,3-dimethylisothiazol-5(2H)-ylidene]hexahydro-2,5-methanopentalene-3a(1H)-carboxamide] |  |  | 3.2 nM | 3.8 nM
14 | CCCCc1cn(C(C)(C)C)s/c1=N\C(=O)[C@]1(C)CC[C@H](C(=O)NC[C@H]2CCCO2)C1(C)C [Example 214, (1R,3S)—N^1-[(5Z)-4-butyl-2-tert-butylisothiazol-5(2H)-ylidene]-1,2,2-trimethyl-N^3-[(2R)-tetrahydrofuran-2-ylmethyl]cyclopentane-1,3-dicarboxamide] |  |  | 83 nM | 130 nM
15 | CCCCc1cn(C(C)(C)C)s/c1=N\C(=O)[C@H]1CC[C@@](C)(C(=O)NC)C1(C)C [Example 182, (1R,3S)—N-[(5Z)-4-butyl-2-tert-butylisothiazol-5(2H)-ylidene]-N^1,1,2,2-tetramethylcyclopentane-1,3-dicarboxamidetetramethylcyclopentane-1,3-dicarboxamide] |  |  | 327 nM | 350 nM
16 | CCCCc1cn(C2(C)CCC2)s/c1=N\C(=O)c1cc(Cl)ccc1OC [Example 5, N-[(5Z)-4-butyl-2-(1-methylcyclobutyl)isothiazol-5(2H)-ylidene]-5-chloro-2-methoxybenzamide] |  |  | 2.2 nM | 30 nM
17 | CCCCc1cn(C(C)(C)C)s/c1=N\C(=O)OC12CC3CC(CC(C3)C1)C2 [Example 189, 1-adamantyl (5Z)-4-butyl-2-tert-butylisothiazol-5(2H)-ylidenecarbamate] |  |  | 5.3 nM | 39 nM
18 | CCCCc1cn(C(C)(C)C)s/c1=N\C(=O)[C@@]1(C)CC[C@@H](C(=O)NC2CCC2)C1(C)C [Example 225, (1S,3R)—N^1-[(5Z)-4-butyl-2-tert-butylisothiazol-5(2H)-ylidene]-N^3-cyclobutyl-1,2,2-trimethylcyclopentane-1,3-dicarboxamide] | 423 nM | 290 nM |  | 
19 | CCCCc1cn(C(C)(C)C)s/c1=N\C(=O)[C@@]1(C)CC[C@@H](NC(=O)c2ccccc2)C1(C)C [Example 255, N-[(1R,3S)-3-({[(5Z)-4-butyl-2-tert-butylisothiazol-5(2H)-ylidene]amino}carbonyl)-2,2,3-trimethylcyclopentyl]benzamide] |  |  | 69 nM | 25 nM
20 | COC(=O)CCCc1cn(C(C)(C)C)s/c1=N\C(=O)c1cc(Cl)ccc1OC [Example 45, Methyl 4-{(5Z)-2-tert-butyl-5-[(5-chloro-2-methoxybenzoyl)imino]-2,5-dihydroisothiazol-4-yl}butanoate] |  | 120 nM | 5.6 nM | 
21 | CCCCc1cn(C2CCC2)s/c1=N\C(=O)c1cc(Cl)ccc1OC [Example 3, N-[(5Z)-4-butyl-2-cyclobutylisothiazol-5(2H)-ylidene]-5-chloro-2-methoxybenzamide] |  | 410 nM | 11 nM | 
22 | CCCCc1cn(C(C)(C)C)s/c1=N\C(=O)C12CCC(C(=O)OC)(CC1)CC2 [Example 108, Methyl 4-({[(5Z)-4-butyl-2-tert-butylisothiazol-5(2H)-ylidene]amino}carbonyl)bicyclo[2.2.2]octane-1-carboxylate] |  | 180 nM | 13 nM | 
23 | CCCCc1cn(C(C)(C)C)s/c1=N\S(=O)(=O)c1ccccc1 [Example 119, N-[(5Z)-4-butyl-2-tert-butylisothiazol-5(2H)-ylidene]benzenesulfonamide] |  | 170 nM | 33 nM | 
24 | CCCCc1cn(C(C)(C)C)s/c1=N\C(=O)C1(c2ccc(F)cc2Cl)CCCCC1 [Example 95, N-[(5Z)-4-butyl-2-tert-butylisothiazol-5(2H)-ylidene]-1-(2-chloro-4-fluorophenyl)cyclohexanecarboxamide] |  |  | 2.3 nM | 7.5 nM
25 | COc1ccc(Cl)cc1C(=O)/N=c1\sn(C(C)(C)C)cc1C(O)c1ccccc1 (stereo not drawn) [Example 31, N-[(5Z)-2-tert-butyl-4-[hydroxy(phenyl)methyl]isothiazol-5(2H)-ylidene]-5-chloro-2-methoxybenzamide] |  |  | 5.8 nM | 63 nM
26 | CCCCc1cn(C(C)(C)C)s/c1=N\C(=O)[C@]1(C)CC[C@H](NC(C)=O)C1(C)C [Example 256, (1R,3S)-3-(acetylamino)-N-[(5Z)-4-butyl-2-tert-butylisothiazol-5(2H)-ylidene]-1,2,2-trimethylcyclopentanecarboxamide] |  |  | 28 nM | 19 nM
27 | CCCCc1cn(C(C)(C)C)s/c1=N\C(=O)[C@]1(C)CC[C@H](C(=O)NCc2ccccn2)C1(C)C [Example 234, (1R,3S)—N^1-[(5Z)-4-butyl-2-tert-butylisothiazol-5(2H)-ylidene]-1,2,2-trimethyl-N^3-(pyridin-2-ylmethyl)cyclopentane-1,3-dicarboxamide] | 142 nM | 320 nM |  | 
28 | CCCCc1cn(C(C)(C)C)s/c1=N\C(=O)[C@]1(C)CC[C@H](C(=O)NCCCO)C1(C)C [Example 213, (1R,3S)—N^1-[(5Z)-4-butyl-2-tert-butylisothiazol-5(2H)-ylidene]-N^3-(3-hydroxypropyl)-1,2,2-trimethylcyclopentane-1,3-dicarboxamide] |  | 140 nM | 45 nM | 
29 | COCCc1cn(C(C)(C)C)s/c1=N\C(=O)c1cc(Cl)ccc1OC [Example 11, N-[(5Z)-2-tert-butyl-4-(2-methoxyethyl)isothiazol-5(2H)-ylidene]-5-chloro-2-methoxybenzamide] |  |  | 29 nM | 
